Laboratory results reported in PubChem BioAssay (NCI).
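Dose response: 5 concentrations. Exposure: 48 h. Format: 96-well plates. Endpoint: linear interpolation; highest concentration if not reached. At the TGI there is no net growth.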

What was measured:
Assay in all cases: NCI tumour cell line growth inhibition, 48 h
DLD-1 colon = system: DLD-1 colon
DMS 273 small cell lung = system: DMS 273 small cell lung
KM20L2 colon = system: KM20L2 colon
LXFL 529 NSCLC = system: LXFL 529 NSCLC
XF 498 CNS = system: XF 498 CNS
P388 leukemia = system: P388 leukemia
P388/ADR leukemia = system: P388/ADR leukemia
SN12K1 renal = system: SN12K1 renal

SMILES | TGI (DLD-1 colon) [µM] | TGI (DMS 273 small cell lung) [µM] | TGI (KM20L2 colon) [µM] | TGI (LXFL 529 NSCLC) [µM] | TGI (XF 498 CNS) [µM] | TGI (P388 leukemia) [µM] | TGI (P388/ADR leukemia) [µM] | TGI (SN12K1 renal) [µM]
COc1cc(C2C(C(=O)O)=C(CO)Oc3cc4c(cc32)OCO4)cc(OC)c1O (stereo not given) | > 100 | > 100 | > 100 |  |  |  |  | 
CCCc1[nH]c(SCCCCCCCCSc2nc(-c3ccc(F)cc3)c(CCC)[nH]2)nc1-c1ccc(F)cc1 |  | > 100 | > 100 | > 100 |  |  |  | 
ONc1ncnc2nc[nH]c12 | > 100 | > 100 | > 100 | > 100 | > 100 |  |  | 
Cc1cccc2nc3c(C(=O)NCCN(C)C)cccc3cc12 | 7.78 | 3.57 | 4.98 |  | 3.24 | 11.7 | 11.8 | 5.26
CCOC(=O)c1nc2ccc(Cl)cc2c2c1Cc1ccccc1-2 | > 100 | > 100 | > 100 | > 100 | > 100 |  |  | 
CCS(=O)(=O)Nc1ccc(Nc2c3ccccc3nc3ccccc23)c(OC)c1 | 17.3 | 1.85 | 6.44 |  | 2.01 | 0.214 | 1.53 | 4.11
Cc1nc(N)nc(N)c1-c1ccc(Cl)c(Cl)c1 | 55 | > 100 | > 100 | > 100 | > 100 |  |  | 
